From US20100120690A1, “Polypeptides Having Antimicrobial Activity and Polynucleotides Encoding Same” (Novozymes Adenium Biotech A/S, priority 2005, published 2010)

The sequences below were run on Staphylococcus carnosus ATCC51365 (assay: Yeast screening assay: radial diffusion assay of yeast supernatants). Conditions: yeast supernatant, clearing zone in radial diffusion assay.
Type: cell-based
Parameters: key: An activity of 3 is better than Plectasin; An activity of 2 corresponds to the activity of Plectasin; 1 is worse than Plectasin
Procedure: A range of antimicrobial polypeptides, which are variants of SEQ ID NO: 1 (Plectasin), were tested for antimicrobial activity by expressing them in S. cerevisae and screening the supernatant of the yeast transformants for antimicrobial activity against Staphylococcus carnosus ATCC51365.
Radial Diffusion Assay was carried out as described in Methods in Molecular Biology, Vol. 78, Antibacterial peptide protocol, William M. Shafer, Human Press.
200-300 yeast transformant colonies were plated on 14 cm round plates containing 25 mL SC growth medium supplemented with 1.5% galactose, 0.5% glucose and 1.5% agarose. Plates were incubated for three hours at room temperature, overlaid with 25 mL of the same growth medium and allowed to grow for three days at 30° C. Then the plates were overlaid with 25 mL of LB growth medium containing 1.5% agarose and 10^5 cells of the indicator strain Staphylococcus carnosus and incubated at 30° C. overnight to allow growth of the bacterial cells. Next day, the plates were stained with 1.5 mM MTT to facilitate visualization of the clearing zones.
Yeast colonies creating clearing zones were transferred to microtiter plates containing 200 micro-L of SC growth medium supplemented with 2% glucose and ampicillin (100 mg/L). Such plates designated “master plates” were incubated for 2 days at 30° C. with shaking at 450 rpm to allow yeast growth.
10 micro-L SC growth medium from each well of the master plates were transferred to new microtiter plates containing 200 micro-L SC growth medium with 1.5% galactose and 0.5% glucose. These plates were called daughter plates and were incubated for 3 days at 30° C. under 450 rpm shaking to allow yeast growth and peptide synthesis.
Finally a Radial Diffusion Assay (RDA) was performed following the protocol described in Methods in Molecular Biology to analyse and quantify the antimicrobial activity of the yeast supernatants against S. carnosus.
Briefly, 30 mL of minimal underlay medium containing 1% agarose and 5×10^5 cfu/mL of S. carnosus was poured in an omnitray plate (Nunc, 242811). A Nunc TSP plate (#445497) was inserted immediately on the plate to allow a 96 well pattern formation. Once the media had solidified, the TSP plate was removed and 10 micro-L of yeast supernatant samples were applied on the holes. Plates were incubated 3 hours at 37° C. and overlaid with 15 mL of LB agar growth medium. Finally, plates were incubated overnight at 37° C. and coloured with 1.5 mM MTT to visualize the clearing zones.
Inspection and measurements of the clearing zones was performed on the plates. The corresponding yeast clones resulting in clearing zones of similar or increased size than the clones encoding for wild type plectasin were picked from the master plates and transferred to agar plates containing SC growth medium with 2% glucose and ampicillin (100 mg/L). Such plates were incubated for further 2 days at 30° C. to allow yeast growth. Subsequently, colony PCR was performed followed by sequence analysis to identify amino acid changes in the plectasin sequence.
An activity of 2 corresponds to the activity of Plectasin. An activity of 3 is better than Plectasin, and 1 is worse than Plectasin.
With “GFGCKGPWDEGDMQCHNHCKSIKGYKGGYCAKGGFVCKCY [N5K + D11G]” the “Activity (antimicrobial activity relative to the activity of plectasin)” value was 3.
With “GFGCLGPWDEDDMQCHNHCKSIKGYKGGYCAKGGFVCKCY [Mutation N5L]” the “Activity (antimicrobial activity relative to the activity of plectasin)” value was 2.
With “GFGCMGPWDEDDMQCHNHCKSIKGYKGGYCAKGGFVCKCY [Mutation N5M]” the “Activity (antimicrobial activity relative to the activity of plectasin)” value was 2.
With “GFGCNAPWDEDDMQCHNHCKSIKGYKGGYCAKGGFVCKCY [Mutation G6A]” the “Activity (antimicrobial activity relative to the activity of plectasin)” value was 2.
“GFGCNGAWDEDDMQCHNHCKSIKGYKGGYCAKGGFVCKCY [Mutation P7A]” was tested, and the “Activity (antimicrobial activity relative to the activity of plectasin)” value was 2.
“GFGCNGKWDEDDMQCHNHCKSIKGYKGGYCAKGGFVCKCY [Mutation P7K]” was tested, and the “Activity (antimicrobial activity relative to the activity of plectasin)” value was 3.
With “GFGCNGLWDEDDMQCHNHCKSIKGYKGGYCAKGGFVCKCY [Mutation P7L]” the “Activity (antimicrobial activity relative to the activity of plectasin)” value was 2.
With “GFGCNGPRDEDDMQCHNHCKSIKGYKGGYCAKGGFVCKCY [Mutation W8R]” the “Activity (antimicrobial activity relative to the activity of plectasin)” value was 3.
In the case of “GFGCNGPRDEDDRQCHNHCKSIKGYKGGYCAKGGFVCKCY [W8R + M13R]”, the “Activity (antimicrobial activity relative to the activity of plectasin)” value is reported as 3.
“GFGCNGPWAEDDMQCHNHCKSIKGYKGGYCAKGGFVCKCY [Mutation D9A]” was tested, and the “Activity (antimicrobial activity relative to the activity of plectasin)” value was 3.
For “GFGCNGPWCEDDMQCHNHCKSIKGYKGGYCAKGGFVCKCY [Mutation D9C]”, the “Activity (antimicrobial activity relative to the activity of plectasin)” value was 2.
In the case of “GFGCNGPWDADDMQCHNHCKSIKGYKGGYCAKGGFVCKCY [Mutation E10A]”, the “Activity (antimicrobial activity relative to the activity of plectasin)” value is reported as 2.
With “GFGCNGPWDCDDMQCHNHCKSIKGYKGGYCAKGGFVCKCY [Mutation E10C]” the “Activity (antimicrobial activity relative to the activity of plectasin)” value was 2.
With “GFGCNGPWDEADMQCHNHCKSIKGYKGGYCAKGGFVCKCY [Mutation D11A]” the “Activity (antimicrobial activity relative to the activity of plectasin)” value was 2.
For “GFGCNGPWDECDMQCHNHCKSIKGYKGGYCAKGGFVCKCY [Mutation D11C]”, the “Activity (antimicrobial activity relative to the activity of plectasin)” value was 2.
“GFGCNGPWDEDDAQCHNHCKSIKGYKGGYCAKGGFVCKCY [Mutation M13A]” was tested, and the “Activity (antimicrobial activity relative to the activity of plectasin)” value was 2.
For “GFGCNGPWDEDDFQCHNHCKSIKGYKGGYCAKGGFVCKCY [Mutation M13F]”, the “Activity (antimicrobial activity relative to the activity of plectasin)” value was 2.
“GFGCNGPWDEDDGQCHNHCKSIKGYKGGYCAKGGFVCKCY [Mutation M13G]” was tested, and the “Activity (antimicrobial activity relative to the activity of plectasin)” value was 2.
With “GFGCNGPWDEDDLQCHNHCKSIKGYKGGYCAKGGFVCKCY [Mutation M13L]” the “Activity (antimicrobial activity relative to the activity of plectasin)” value was 2.
With “GFGCNGPWDEDDMACHNHCKSIKGYKGGYCAKGGFVCKCY [Mutation Q14A]” the “Activity (antimicrobial activity relative to the activity of plectasin)” value was 2.
“GFGCNGPWDEDDMCCHNHCKSIKGYKGGYCAKGGFVCKCY [Mutation Q14C]” was tested, and the “Activity (antimicrobial activity relative to the activity of plectasin)” value was 2.
In the case of “GFGCNGPWDEDDMHCHNHCKSIKGYKGGYCAKGGFVCKCY [Mutation Q14H]”, the “Activity (antimicrobial activity relative to the activity of plectasin)” value is reported as 3.
For “GFGCNGPWDEDDMICHNHCKSIKGYKGGYCAKGGFVCKCY [Mutation Q14I]”, the “Activity (antimicrobial activity relative to the activity of plectasin)” value was 2.
“GFGCNGPWDEDDMKCHNHCKSIKGYKGGYCAKGGFVCKCY [Mutation Q14K]” was tested, and the “Activity (antimicrobial activity relative to the activity of plectasin)” value was 2.
“GFGCNGPWDEDDMMCHNHCKSIKGYKGGYCAKGGFVCKCY [Mutation Q14M]” was tested, and the “Activity (antimicrobial activity relative to the activity of plectasin)” value was 2.
For “GFGCNGPWDEDDMPCHNHCKSIKGYKGGYCAKGGFVCKCY [Mutation Q14P]”, the “Activity (antimicrobial activity relative to the activity of plectasin)” value was 2.
With “GFGCNGPWDEDDMQCHNACKSIKGYKGGYCAKGGFVCKCY [Mutation H18A]” the “Activity (antimicrobial activity relative to the activity of plectasin)” value was 2.
With “GFGCNGPWDEDDMQCHNFCKSIKGYKGGYCAKGGFVCKCY (Synthetic antimicrobial polypeptide) [Mutation H18F]” the “Activity (antimicrobial activity relative to the activity of plectasin)” value was 2.
In the case of “GFGCNGPWDEDDMQCHNHCKSIKAYKGGYCAKGGFVCKCY [Mutation G24A]”, the “Activity (antimicrobial activity relative to the activity of plectasin)” value is reported as 2.
In the case of “GFGCNGPWDEDDMQCHNHCKSIKFYKGGYCAKGGFVCKCY [Mutation G24F]”, the “Activity (antimicrobial activity relative to the activity of plectasin)” value is reported as 2.
With “GFGCNGPWDEDDMQCHNHCKSIKGHKGGYCAKGGFVCKCY [Mutation Y25H]” the “Activity (antimicrobial activity relative to the activity of plectasin)” value was 2.
With “GFGCNGPWDEDDMQCHNHCKSIKGKKGGYCAKGGFVCKCY [Mutation Y25K]” the “Activity (antimicrobial activity relative to the activity of plectasin)” value was 2.
“GFGCNGPWDEDDMQCHNHCKSIKGLKGGYCAKGGFVCKCY [Mutation Y25L]” was tested, and the “Activity (antimicrobial activity relative to the activity of plectasin)” value was 2.
With “GFGCNGPWDEDDMQCHNHCKSIKGMKGGYCAKGGFVCKCY [Mutation Y25M]” the “Activity (antimicrobial activity relative to the activity of plectasin)” value was 2.
“GFGCNGPWDEDDMQCHNHCKSIKGNKGGYCAKGGFVCKCY [Mutation Y25N]” was tested, and the “Activity (antimicrobial activity relative to the activity of plectasin)” value was 2.
In the case of “GFGCNGPWDEDDMQCHNHCKSIKGQKGGYCAKGGFVCKCY [Mutation Y25Q]”, the “Activity (antimicrobial activity relative to the activity of plectasin)” value is reported as 2.
With “GFGCNGPWDEDDMQCHNHCKSIKGSKGGYCAKGGFVCKCY [Mutation Y25S]” the “Activity (antimicrobial activity relative to the activity of plectasin)” value was 2.
With “GFGCNGPWDEDDMQCHNHCKSIKGVKGGYCAKGGFVCKCY [Mutation Y25V]” the “Activity (antimicrobial activity relative to the activity of plectasin)” value was 2.
For “GFGCNGPWDEDDMQCHNHCKSIKGYFGGYCAKGGFVCKCY [Mutation K26F]”, the “Activity (antimicrobial activity relative to the activity of plectasin)” value was 2.
In the case of “GFGCNGPWDEDDMQCHNHCKSIKGYHGGYCAKGGFVCKCY [Mutation K26H]”, the “Activity (antimicrobial activity relative to the activity of plectasin)” value is reported as 2.
In the case of “GFGCNGPWDEDDMQCHNHCKSIKGYKGGACAKGGFVCKCY [Mutation Y29A]”, the “Activity (antimicrobial activity relative to the activity of plectasin)” value is reported as 2.
For “GFGCNGPWDEDDMQCHNHCKSIKGYKGGFCAKGGFVCKCY [Mutation Y29F]”, the “Activity (antimicrobial activity relative to the activity of plectasin)” value was 3.
With “GFGCNGPWDEDDMQCHNHCKSIKGYKGGFCARGGFVCKCY [Y29F + K32R]” the “Activity (antimicrobial activity relative to the activity of plectasin)” value was 2.
For “GFGCNGPWDEDDMQCHNHCKSIKGYKGGHCAKGGFVCKCY [Mutation Y29H]”, the “Activity (antimicrobial activity relative to the activity of plectasin)” value was 2.
For “GFGCNGPWDEDDMQCHNHCKSIKGYKGGLCAKGGFVCKCY [Mutation Y29L]”, the “Activity (antimicrobial activity relative to the activity of plectasin)” value was 2.
For “GFGCNGPWDEDDMQCHNHCKSIKGYKGGMCAKGGFVCKCY [Mutation Y29M]”, the “Activity (antimicrobial activity relative to the activity of plectasin)” value was 2.
In the case of “GFGCNGPWDEDDMQCHNHCKSIKGYKGGRCAKGGFVCKCY [Mutation Y29R]”, the “Activity (antimicrobial activity relative to the activity of plectasin)” value is reported as 3.
“GFGCNGPWDEDDMQCHNHCKSIKGYKGGSCAKGGFVCKCY [Mutation Y29S]” was tested, and the “Activity (antimicrobial activity relative to the activity of plectasin)” value was 2.
“GFGCNGPWDEDDMQCHNHCKSIKGYKGGWCAKGGFVCKCY [Mutation Y29W]” was tested, and the “Activity (antimicrobial activity relative to the activity of plectasin)” value was 3.
For “GFGCNGPWDEDDMQCHNHCKSIKGYKGGYCAKEGFVCKCY [Mutation G33E]”, the “Activity (antimicrobial activity relative to the activity of plectasin)” value was 2.
For “GFGCNGPWDEDDMQCHNHCKSIKGYKGGYCAKGGAVCKCY [Mutation F35A]”, the “Activity (antimicrobial activity relative to the activity of plectasin)” value was 2.
With “GFGCNGPWDEDDMQCHNHCKSIKGYKGGYCAKGGFICKCY [Mutation V36I]” the “Activity (antimicrobial activity relative to the activity of plectasin)” value was 2.
For “GFGCNGPWDEDDMQCHNHCKSIKGYKGGYCAKGGFKCKCY [Mutation V36K]”, the “Activity (antimicrobial activity relative to the activity of plectasin)” value was 2.
With “GFGCNGPWDEDDMQCHNHCKSIKGYKGGYCAKGGFMCKCY [Mutation V36M]” the “Activity (antimicrobial activity relative to the activity of plectasin)” value was 3.
“GFGCNGPWDEDDMQCHNHCKSIKGYKGGYCAKGGFQCKCY [Mutation V36Q]” was tested, and the “Activity (antimicrobial activity relative to the activity of plectasin)” value was 2.
With “GFGCNGPWDEDDMQCHNHCKSIKGYKGGYCAKGGFRCKCY [Mutation V36R]” the “Activity (antimicrobial activity relative to the activity of plectasin)” value was 2.
In the case of “GFGCNGPWDEDDMQCHNHCKSIKGYKGGYCAKGGFTCKCY [Mutation V36T]”, the “Activity (antimicrobial activity relative to the activity of plectasin)” value is reported as 3.
“GFGCNGPWDEDDMQCHNHCKSIKGYKGGYCAKGGFVCHCY [Mutation K38H]” was tested, and the “Activity (antimicrobial activity relative to the activity of plectasin)” value was 2.
“GFGCNGPWDEDDMQCHNHCKSIKGYKGGYCAKGGFVCKCI [Mutation Y40I]” was tested, and the “Activity (antimicrobial activity relative to the activity of plectasin)” value was 2.
“GFGCNGPWDEDDMQCHNHCKSIKGYKGGYCAKGGFVCNCY [Mutation K38N]” was tested, and the “Activity (antimicrobial activity relative to the activity of plectasin)” value was 2.
